*1 amine or outer side, *2 acyl side, *3 side chain or, on linkers, in order; H or OH if unused. Where a SMILES comes first, the peptide text is derived from it. [ ]: non-standard residue; d: D form. X1 = O=C(C(N[*:1])c1cc(O)cc(O)c1)[*:2]; Hpg = N[CH](C(=O)O)c1ccc(O)cc1
Tests used:
[1] = system: human immunodeficiency viruses; assay type: cell-based, human immunodeficiency virus
Protocol: The IC50 is less than 7 μg per ml. The inhibitory activity can be measured by light-microscopic observation of HIV-typical syncytia. In this connection, the reduction in syncytia formation is a measure of the activity of the agent, in this case of feglymycin. It is also possible, however, to determine the activity of feglymycin by measuring the amount of HIV particles in cell culture supernatants, e.g. by means of commercially available p24 antigen tests.

[2] = assay type: cell-based
Source text: The tolerability of feglymycin in both the active concentration and even in higher concetrations is good. Cytotoxic effects or other toxicities were not observed.

[3] = assay type: physicochemical
Source text: Stable in neutral and mildly alkaline medium, but unstable in strongly acidic or strongly alkaline solutions.

## CC(C)C(NC(=O)C(NC(=O)C(N)c1ccc(O)cc1)c1cc(O)cc(O)c1)C(=O)NC(C(=O)NC(C(=O)NC(C(=O)NC(C(=O)NC(C(=O)NC(C(=O)NC(C(=O)NC(C(=O)NC(Cc1ccccc1)C(=O)NC(CC(=O)O)C(=O)O)c1ccc(O)cc1)c1cc(O)cc(O)c1)C(C)C)c1cc(O)cc(O)c1)c1ccc(O)cc1)c1cc(O)cc(O)c1)c1ccc(O)cc1)c1cc(O)cc(O)c1 (stereo not drawn) [feglymycin] (H-[Hpg][X1]V[X1][Hpg][X1][Hpg][X1]V[X1][Hpg]FD-OH; configuration not given here)
[1]
  IC50, inhibitory activity on human immunodeficiency viruses: less than 7 μg per ml
[2]
  Cytotoxic effects or other toxicities: not observed
[3]
  Solubility: soluble in methanol, acetonitrile and water

Reference: patent US5891851A, “Antibiotic, feglymycin, processes for its preparation and its use” (Hoechst Aktiengesellschaft, priority 1996, dated 1999)
